Experimental data reported in ChEMBL document CHEMBL5104093, “A comprehensive review on β-lapachone: Mechanisms, structural modifications, and therapeutic potentials” (Eur J Med Chem, 2021).
Converted amounts (≈) assume the structure as drawn.

system: Mycobacterium tuberculosis; assay: Antimycobacterial activity against rifampicin resistant Mycobacterium tuberculosis ATCC 35338 assessed as bacterial growth inhibition incubated for 7 days by resazurin dye based microtiter assay; type: functional; conditions: ATCC 35338, 168 h, time 7 day

Row | SMILES | MIC [µg/mL]
1 | C=CCC1Cc2c(c3ccccc3c3nc4ccccc4nc23)OC1(C)C (stereo unspecified) | 0.78 (≈ 2.2 µM)
2 | CC1(C)CCc2c(c3ccccc3c3nc(-c4cccc(Br)c4)[nH]c23)O1 | 1.56 (≈ 3.83 µM)
3 | CC1(C)CCc2c(c3ccccc3c3nc(-c4cccc(F)c4)[nH]c23)O1 | 1.56 (≈ 4.5 µM)
4 | CC1(C)CCc2c(c3ccccc3c3nc(-c4ccc([N+](=O)[O-])cc4)[nH]c23)O1 | > 100
5 | COc1ccccc1-c1nc2c([nH]1)c1c(c3ccccc32)OC(C)(C)CC1 | 1.56 (≈ 4.35 µM)
6 | Cc1ccccc1-c1nc2c([nH]1)c1c(c3ccccc32)OC(C)(C)CC1 | 1.56 (≈ 4.56 µM)
7 | CC1(C)CCc2c(c3ccccc3c3nc(-c4cccc(C(F)(F)F)c4)[nH]c23)O1 | 1.56 (≈ 3.94 µM)
8 | Cc1ccc(-c2nc3c([nH]2)c2c(c4ccccc43)OC(C)(C)CC2)cc1 | 6.25 (≈ 18.3 µM)
9 | CC1CCC2C(C1)c1c(c3ccccc3c3nc4ccccc4nc13)OC2(C)C (stereo unspecified) | < 6.25
10 | CC1(C)Oc2c(c3nc4ccccc4nc3c3ccccc23)C=C1Br | < 6.25

system: Mycobacterium tuberculosis; assay: Antimycobacterial activity against rifampicin resistant Mycobacterium tuberculosis ATCC 35822 assessed as bacterial growth inhibition incubated for 7 days by resazurin dye based microtiter assay; type: functional; conditions: ATCC 35822, 168 h, time 7 day

Row | SMILES | MIC [µg/mL]
11 | CC1(C)CCc2c(c3ccccc3c3nc(-c4ccc([N+](=O)[O-])cc4)[nH]c23)O1 | 1.56 (≈ 4.18 µM)
